Broadly, the EC50 is the concentration giving half of the maximal effect. A lower EC50 goes with a more potent agent.

This assay deals with T1, F508delCFTR cell surface expression in CFBE41o-F508delCFTR-HRP cells (Homo sapiens, UniProt P13569, DEL508-508).
T1 construct: fused on or other part: Horseradish peroxidase (HRP) reporter inserted in the fourth exofacial (extracellular) loop of CFTR; expression is doxycycline-inducible
The assay is described as follows: Cell Surface Expression-Horse Radish Peroxidase (CSE-HRP) Assay. The format is cell-based. The conditions noted are these: for EC50: CFBE41o-F508delCFTR-HRP cells, 18-24 hours at 33° C., 8-point curve, highest concentration 20 μM; for Maximum % activity (%): maximum at any tested concentration, normalized to on-plate positive control (3 μM). The essentials:
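CFBE41o- cells with HRP-tagged F508delCFTR, expression induced by 0.5 μg/mL doxycycline for 72 h at 37 °C, then compound for 18-24 h at 33 °C (8-point, 3-fold, top 20 μM). Surface HRP measured by luminol luminescence; % activity normalised to 3 μM positive-control corrector; EC50 from variable-slope sigmoidal fit, three replicate plates.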

T1 sequence (P13569 with tags, fused parts or gaps DEL508-508 limits assumed): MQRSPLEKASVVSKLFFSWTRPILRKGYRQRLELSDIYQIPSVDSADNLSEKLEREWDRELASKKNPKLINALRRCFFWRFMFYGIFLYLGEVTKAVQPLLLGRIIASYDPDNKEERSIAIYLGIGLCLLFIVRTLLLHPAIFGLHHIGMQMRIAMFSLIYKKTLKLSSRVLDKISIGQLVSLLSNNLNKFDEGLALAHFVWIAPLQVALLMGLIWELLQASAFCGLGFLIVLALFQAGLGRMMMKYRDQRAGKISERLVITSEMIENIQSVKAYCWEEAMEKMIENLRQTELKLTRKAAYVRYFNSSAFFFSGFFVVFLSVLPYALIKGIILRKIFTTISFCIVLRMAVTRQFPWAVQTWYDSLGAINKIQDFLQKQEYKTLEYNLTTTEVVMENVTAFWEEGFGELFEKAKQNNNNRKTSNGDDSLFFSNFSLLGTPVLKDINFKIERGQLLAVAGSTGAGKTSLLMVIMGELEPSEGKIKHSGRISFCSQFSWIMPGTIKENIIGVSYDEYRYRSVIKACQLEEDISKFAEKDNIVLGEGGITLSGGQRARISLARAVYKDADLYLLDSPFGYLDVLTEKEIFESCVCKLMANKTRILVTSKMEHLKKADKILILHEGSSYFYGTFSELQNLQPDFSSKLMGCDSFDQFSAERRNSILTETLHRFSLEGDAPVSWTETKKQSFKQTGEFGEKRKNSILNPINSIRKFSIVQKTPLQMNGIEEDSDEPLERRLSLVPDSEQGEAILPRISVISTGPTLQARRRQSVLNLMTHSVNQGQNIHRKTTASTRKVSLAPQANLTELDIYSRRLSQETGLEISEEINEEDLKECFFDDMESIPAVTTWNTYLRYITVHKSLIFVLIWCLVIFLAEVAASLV
T1 sequence (P13569 919-1480 limits assumed, stated change not applied): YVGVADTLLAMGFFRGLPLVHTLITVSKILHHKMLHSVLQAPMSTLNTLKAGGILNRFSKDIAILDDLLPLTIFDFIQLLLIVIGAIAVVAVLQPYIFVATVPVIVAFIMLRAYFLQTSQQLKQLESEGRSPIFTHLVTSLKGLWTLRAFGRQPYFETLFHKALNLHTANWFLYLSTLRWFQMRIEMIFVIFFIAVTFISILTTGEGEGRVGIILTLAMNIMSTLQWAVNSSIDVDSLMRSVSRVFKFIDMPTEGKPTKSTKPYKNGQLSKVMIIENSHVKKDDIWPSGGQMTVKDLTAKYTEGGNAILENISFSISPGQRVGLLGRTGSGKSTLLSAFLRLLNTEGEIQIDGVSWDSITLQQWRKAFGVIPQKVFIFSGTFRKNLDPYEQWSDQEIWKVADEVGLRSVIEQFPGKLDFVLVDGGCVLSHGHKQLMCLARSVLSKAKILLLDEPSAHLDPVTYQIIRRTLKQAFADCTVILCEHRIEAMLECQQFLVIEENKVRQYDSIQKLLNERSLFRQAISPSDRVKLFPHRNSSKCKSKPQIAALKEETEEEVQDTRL

For `COC(=O)c1ccc([C@H]2C[C@@H](NC(=O)[C@]3(C)COc4cc5c(cc43)OC(F)(F)O5)c3ccc(OC)cc3O2)cc1` [Example 17, methyl 4-[(2R,4R)-4-{[(7S)-2,2-difluoro-7-methyl-6,7-dihydro-2H-furo[2,3-f][1,3]benzodioxole-7-carbonyl]amino}-7-methoxy-3,4-dihydro-2H-1-benzopyran-2-yl]benzoate], the EC50 amounted to 8770 nM and the “Maximum % activity (%)” value amounted to 31%.

Consider `CC1(C(=O)Nc2cccc(F)n2)COc2cc3c(cc21)OC(F)(F)O3` (stereo not drawn) [Example 67, 2,2-difluoro-N-(6-fluoropyridin-2-yl)-7-methyl-6,7-dihydro-2H-furo[2,3-f][1,3]benzodioxole-7-carboxamide], for which it took 8390 nM to reach a half-maximal effect (EC50) and the “Maximum % activity (%)” value is given as 70%.

Turning to `COc1ccc2c(c1)O[C@@H](c1ccc(C(=O)N(C)CC(O)c3ccccc3)cn1)C[C@H]2NC(=O)[C@@]1(C)COc2cc3c(cc21)OC(F)(F)O3` (stereo partly drawn) [Example 211, 6-[(2R,4R)-4-{[(7R)-2,2-difluoro-7-methyl-6,7-dihydro-2H-furo[2,3-f][1,3]benzodioxole-7-carbonyl]amino}-7-methoxy-3,4-dihydro-2H-1-benzopyran-2-yl]-N-(2-hydroxy-2-phenylethyl)-N-methylpyridine-3-carboxamide], the concentration giving a half-maximal response (EC50) came to 30 nM and the “Maximum % activity (%)” value is 124%.

Take `CC(C)(CO)c1cc2cc(NC(=O)[C@]3(C)COc4cc5c(cc43)OC(F)(F)O5)c(F)cc2n1C[C@@H](O)CO` [Example 138, (7S)—N-{1-[(2R)-2,3-dihydroxypropyl]-6-fluoro-2-(1-hydroxy-2-methylpropan-2-yl)-1H-indol-5-yl}-2,2-difluoro-7-methyl-6,7-dihydro-2H-furo[2,3-f][1,3]benzodioxole-7-carboxamide]: the EC50 was determined as 7650 nM and the “Maximum % activity (%)” value is given as 23%.

As to “(7R)—N-[5-(3R,4R)-dihydroxypyrrolidin-1-yl)pyrazin-2-yl]-2,2-difluoro-7-methyl-6,7-dihydro-2H-furo[2,3-f][1,3]benzodioxole-7-carboxamide and (7R)—N-[5-(3S,4S)-dihydroxypyrrolidin-1-yl)pyrazin-2-yl]-2,2-difluoro-7-methyl-6,7-dihydro-2H-furo[2,3-f][1,3]benzodioxole-7-carboxamide [Example 121]”, the 50% effective concentration (EC50) stood at 11100 nM and the “Maximum % activity (%)” value is on record as 23%.

As for `CC1(C)OC[C@H]([C@@H](O)Cn2nc(-c3ccccc3)cc(NC(=O)[C@@]3(C)COc4cc5c(cc43)OC(F)(F)O5)c2=O)O1` [Example 104, (7R)—N-(2-{(2S)-2-[(4R)-2,2-dimethyl-1,3-dioxolan-4-yl]-2-hydroxyethyl}-3-oxo-6-phenyl-2,3-dihydropyridazin-4-yl)-2,2-difluoro-7-methyl-6,7-dihydro-2H-furo[2,3-f][1,3]benzodioxole-7-carboxamide], the EC50 was > 20000 nM and the “Maximum % activity (%)” value was found to be 16%.

For the compound `COc1ccc2c(c1)O[C@@H](c1nnnn1Cc1ccccc1)C[C@H]2NC(=O)[C@@]1(C)COc2cc3c(cc21)OC(F)(F)O3` [Example 283, (7R)—N-[(2R,4R)-2-(1-benzyl-1H-tetrazol-5-yl)-7-methoxy-3,4-dihydro-2H-1-benzopyran-4-yl]-2,2-difluoro-7-methyl-6,7-dihydro-2H-furo[2,3-f][1,3]benzodioxole-7-carboxamide], it took 1760 nM to reach a half-maximal effect (EC50) and the “Maximum % activity (%)” value stood at 95%.

As for `COc1ccc2c(c1)O[C@@H](c1ccc(C(=O)NC(CO)c3ccccc3OC)cn1)C[C@H]2NC(=O)[C@@]1(C)COc2cc3c(cc21)OC(F)(F)O3` (stereo partly drawn) [Example 222, 6-[(2R,4R)-4-{[(7R)-2,2-difluoro-7-methyl-6,7-dihydro-2H-furo[2,3-f][1,3]benzodioxole-7-carbonyl]amino}-7-methoxy-3,4-dihydro-2H-1-benzopyran-2-yl]-N-[2-hydroxy-1-(2-methoxyphenyl)ethyl]pyridine-3-carboxamide], the midpoint of the response, the EC50, lay at 20 nM and the “Maximum % activity (%)” value worked out at 116%.

With `C[C@]1(C(=O)N[C@H]2C[C@@H](C3(C(=O)O)CC3)Oc3cc(OC(F)(F)F)ccc32)COc2cc3c(cc21)OC(F)(F)O3` [Example 201, 1-[(2S,4S)-4-{[(7R)-2,2-difluoro-7-methyl-6,7-dihydro-2H-furo[2,3-f][1,3]benzodioxole-7-carbonyl]amino}-7-(trifluoromethoxy)-3,4-dihydro-2H-1-benzopyran-2-yl]cyclopropane-1-carboxylic acid], the 50% effective concentration (EC50) is 1610 nM and the “Maximum % activity (%)” value is 71%.

Take `C[C@]1(C(=O)N[C@@H]2C[C@H]([C@H]3CC[C@H](C(=O)N4CCC(O)CC4)CC3)Oc3cc(OC(F)(F)F)ccc32)COc2cc3c(cc21)OC(F)(F)O3` [Example 265, (7R)-2,2-difluoro-N-[(2R,4R)-2-[trans-4-(4-hydroxypiperidine-1-carbonyl)cyclohexyl]-7-(trifluoromethoxy)-3,4-dihydro-2H-1-benzopyran-4-yl]-7-methyl-6,7-dihydro-2H-furo[2,3-f][1,3]benzodioxole-7-carboxamide]: the EC50 was 80 nM and the “Maximum % activity (%)” value is given as 173%.

In the case of `COc1ccc2c(c1)O[C@H]([C@H]1CC[C@H](C(=O)O)CC1)C[C@@H]2NC(=O)[C@@]1(C)COc2cc3c(cc21)OC(F)(F)O3` [Example 154, trans-4-[(2S,4S)-4-{[(7R)-2,2-difluoro-7-methyl-6,7-dihydro-2H-furo[2,3-f][1,3]benzodioxole-7-carbonyl]amino}-7-methoxy-3,4-dihydro-2H-1-benzopyran-2-yl]cyclohexane-1-carboxylic acid], the response was half-maximal at 915 nM (EC50) and the “Maximum % activity (%)” value amounted to 103%.

With `COC(=O)c1cccc(-n2nc(C3CC3)cc(NC(=O)[C@@]3(C)COc4cc5c(cc43)OC(F)(F)O5)c2=O)c1` [Example 28, methyl 3-[3-cyclopropyl-5-{[(7R)-2,2-difluoro-7-methyl-6,7-dihydro-2H-furo[2,3-f][1,3]benzodioxole-7-carbonyl]amino}-6-oxopyridazin-1(6H)-yl]benzoate], the concentration for a half-maximal effect (EC50) was found to be 1420 nM and the “Maximum % activity (%)” value was found to be 112%.

For the compound `COc1ccc2c(c1)O[C@@H](c1ccc(C(=O)O)cc1)C[C@H]2NC(=O)C1(C)COc2cc3c(cc21)OC(F)(F)O3` (stereo partly drawn) [Example 16, 4-{(2R,4R)-4-[(2,2-difluoro-7-methyl-6,7-dihydro-2H-furo[2,3-f][1,3]benzodioxole-7-carbonyl)amino]-7-methoxy-3,4-dihydro-2H-1-benzopyran-2-yl}benzoic acid], the EC50 was determined as 60 nM and the “Maximum % activity (%)” value was determined as 150%.

As for `C[C@]1(C(=O)N[C@H]2C[C@@H](C3(C(=O)N(CCO)CCO)CC3)Oc3cc(OC(F)(F)F)ccc32)COc2cc3c(cc21)OC(F)(F)O3` [Example 280, (7R)—N-[(2S,4S)-2-{1-[bis(2-hydroxyethyl)carbamoyl]cyclopropyl}-7-(trifluoromethoxy)-3,4-dihydro-2H-1-benzopyran-4-yl]-2,2-difluoro-7-methyl-6,7-dihydro-2H-furo[2,3-f][1,3]benzodioxole-7-carboxamide], the concentration giving a half-maximal response (EC50) was > 20000 nM and the “Maximum % activity (%)” value is 10%.

Take `COc1ccc2c(c1)O[C@@H](c1ccc(C(=O)NC(C)CC(N)=O)cn1)C[C@H]2NC(=O)[C@@]1(C)COc2cc3c(cc21)OC(F)(F)O3` (stereo partly drawn) [Example 229, N-(4-amino-4-oxobutan-2-yl)-6-[(2R,4R)-4-{[(7R)-2,2-difluoro-7-methyl-6,7-dihydro-2H-furo[2,3-f][1,3]benzodioxole-7-carbonyl]amino}-7-methoxy-3,4-dihydro-2H-1-benzopyran-2-yl]pyridine-3-carboxamide]: the midpoint of the response, the EC50, lay at 110 nM and the “Maximum % activity (%)” value was found to be 118%.

`C[C@]1(C(=O)N[C@H]2C[C@@H]([C@H]3CC[C@@H](C(=O)O)CC3)Oc3cc(OC(F)(F)F)ccc32)COc2cc3c(cc21)OC(F)(F)O3` [Example 161, cis-4-[(2S,4S)-4-{[(7R)-2,2-difluoro-7-methyl-6,7-dihydro-2H-furo[2,3-f][1,3]benzodioxole-7-carbonyl]amino}-7-(trifluoromethoxy)-3,4-dihydro-2H-1-benzopyran-2-yl]cyclohexane-1-carboxylic acid]: the EC50 is 5090 nM and the “Maximum % activity (%)” value worked out at 101%.

For `CCOC(=O)[C@H]1CC[C@H]([C@H]2C[C@@H](NC(=O)[C@@]3(C)COc4cc5c(cc43)OC(F)(F)O5)c3ccc(OC(F)F)cc3O2)CC1` [Example 156, ethyl trans-4-[(2R,4R)-7-(difluoromethoxy)-4-{[(7R)-2,2-difluoro-7-methyl-6,7-dihydro-2H-furo[2,3-f][1,3]benzodioxole-7-carbonyl]amino}-3,4-dihydro-2H-1-benzopyran-2-yl]cyclohexane-1-carboxylate], it took 90 nM to reach a half-maximal effect (EC50) and the “Maximum % activity (%)” value turned out to be 142%.

Regarding `CC1(C)OC[C@H](CN2CCC([C@@H]3C[C@H](NC(=O)[C@@]4(C)COc5cc6c(cc54)OC(F)(F)O6)c4ccc(OC(F)(F)F)cc4O3)CC2)O1` [Example 226, (7R)—N-[(2S,4S)-2-(1-{[(4S)-2,2-dimethyl-1,3-dioxolan-4-yl]methyl}piperidin-4-yl)-7-(trifluoromethoxy)-3,4-dihydro-2H-1-benzopyran-4-yl]-2,2-difluoro-7-methyl-6,7-dihydro-2H-furo[2,3-f][1,3]benzodioxole-7-carboxamide], the EC50 was > 20000 nM and the “Maximum % activity (%)” value stood at 18%.

Values taken from patent US9840513B2 (AbbVie S.à.r.l., priority 2015, dated 2017).
